The subject of this assay is L1210 leukemia ip in BDF1 mice, survival T/C. The assay can be described thus: NCI In Vivo Anticancer Drug Screen. Data for tumor model L1210 Leukemia (intraperitoneal) in B6D2F1 (BDF1) mice. The settings on record: endpoint: mean survival time, higher = longer survival. The gist of the method: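 Transplanted-tumor mice were given test agent; controls received vehicle only. Survival readings from the two groups were divided (treated over control).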

[1] abbreviates: dose: 100.0 mg/kg/injection, schedule: Q01DX009 (ip), vehicle: Klucel (hydroxypropylcellulose) (HPC).
[2] abbreviates: dose: 200.0 mg/kg/injection, schedule: Q01DX009 (ip), vehicle: Klucel (hydroxypropylcellulose) (HPC).
[3] abbreviates: dose: 400.0 mg/kg/injection, schedule: Q01DX009 (ip), vehicle: Klucel (hydroxypropylcellulose) (HPC).
Where [4] appears, read: dose: 100.0 mg/kg/injection, schedule: Q04DX003 (ip), vehicle: Klucel (hydroxypropylcellulose) (HPC).
The mark [5] stands for this setting: dose: 200.0 mg/kg/injection, schedule: Q04DX003 (ip), vehicle: Klucel (hydroxypropylcellulose) (HPC).
The mark [6] stands for this setting: dose: 400.0 mg/kg/injection, schedule: Q04DX003 (ip), vehicle: Klucel (hydroxypropylcellulose) (HPC).
Where [7] appears, read: dose: 100.0 mg/kg/injection, schedule: Q01DX001 (ip), vehicle: Klucel (hydroxypropylcellulose) (HPC).
The mark [8] stands for this setting: dose: 100.0 mg/kg/injection, schedule: Q01DX001 (ip), vehicle: saline.
Setting [9] is: dose: 200.0 mg/kg/injection, schedule: Q01DX001 (ip), vehicle: saline.

Results on 15 molecules are retold here after PubChem BioAssay AID248 (DTP/NCI, 2004).

Molecules are shown by their SMILES. “And” between values parts separate entries of the source, which are not always exact repeats. Identical values can stand only once. Inconclusive results and toxic doses are left out.

With `CN=C(NC)c1cccc(NC(=O)Nc2ccc(NC(=O)Nc3cccc(C(=NC)NC)c3)cc2)c1`, the T/C (dose: 2.3 mg/kg/injection, schedule: Q01DX Z (ip), vehicle: carboxymethylcellulose (CMC)) was 93 % of control; the T/C (dose: 3.5 mg/kg/injection, schedule: Q01DX Z (ip), vehicle: carboxymethylcellulose (CMC)) was 97 % of control; the T/C (dose: 5.3 mg/kg/injection, schedule: Q01DX Z (ip), vehicle: carboxymethylcellulose (CMC)) is 95 % of control; the T/C (dose: 5.5 mg/kg/injection, schedule: Q01DX Z (ip), vehicle: carboxymethylcellulose (CMC)) is 96 % of control; the T/C (dose: 8.0 mg/kg/injection, schedule: Q01DX Z (ip), vehicle: carboxymethylcellulose (CMC)) was 97 % of control; the T/C (dose: 8.3 mg/kg/injection, schedule: Q01DX Z (ip), vehicle: carboxymethylcellulose (CMC)) is 98 % of control. Further, the T/C runs as follows: (dose: 12.5 mg/kg/injection, schedule: Q01DX Z (ip), vehicle: carboxymethylcellulose (CMC)) 101 % of control; (dose: 18.75 mg/kg/injection, schedule: Q01DX Z (ip), vehicle: carboxymethylcellulose (CMC)) 115 % of control.
As for `CC1SC(N)=NC1=O` (stereo not given), the T/C is 94 % of control under setting [1]; 108 % of control (dose: 100.0 mg/kg/injection, schedule: Q04DX003 (ip), vehicle: saline); 100 % of control under setting [2]; 103 % of control (dose: 200.0 mg/kg/injection, schedule: Q04DX003 (ip), vehicle: saline); 100 % of control under setting [3]; 93 % of control (dose: 400.0 mg/kg/injection, schedule: Q04DX003 (ip), vehicle: saline).
As for `Cc1cc(S(=O)(=O)F)ccc1NC(=O)NCc1ccc(N2C(N)=NC(N)=NC2(C)C)cc1`, the T/C is 108 % of control under setting [4], 100 % of control under setting [5] and 106 % of control under setting [6].
For the molecule `Cc1ccc(NS(=O)(=O)c2ccc(F)cc2)cc1C`, the T/C runs as follows: under setting [1], 95 % of control; under setting [4], 95 % of control; under setting [2], 95 % of control; under setting [5], 105 % of control; under setting [3], 97 % of control; under setting [6], 101 % of control.
Take `O=[N+]([O-])c1cc(C(F)(F)F)ccc1Oc1ccc(Cl)cc1`: the T/C under setting [4] was 96 % of control, the T/C under setting [5] was 103 % of control and the T/C under setting [6] is 96 % of control.
With `O=C1N(Br)C(=O)C(c2ccc(Cl)cc2)(c2ccc(Cl)cc2)N1Br`, the T/C reads like this: (dose: 15.0 mg/kg/injection, schedule: Q01DX015 (ip), vehicle: carboxymethylcellulose (CMC)) 89 % of control; (dose: 30.0 mg/kg/injection, schedule: Q01DX015 (ip), vehicle: carboxymethylcellulose (CMC)) 93 % of control; (dose: 60.0 mg/kg/injection, schedule: Q01DX015 (ip), vehicle: carboxymethylcellulose (CMC)) 88 % of control; (dose: 100.0 mg/kg/injection, schedule: Q01DX001 (ip), vehicle: carboxymethylcellulose (CMC)) 95 % of control; (dose: 100.0 mg/kg/injection, schedule: Q01DX009 (ip), vehicle: saline sonified) 113 % of control; under setting [4], 99 % of control. The T/C is, setting by setting: (dose: 120.0 mg/kg/injection, schedule: Q01DX015 (ip), vehicle: carboxymethylcellulose (CMC)) 93 % of control; (dose: 200.0 mg/kg/injection, schedule: Q01DX001 (ip), vehicle: carboxymethylcellulose (CMC)) 90 % of control; (dose: 200.0 mg/kg/injection, schedule: Q01DX009 (ip), vehicle: saline sonified) 106 % of control; under setting [5], 94 % of control; (dose: 240.0 mg/kg/injection, schedule: Q01DX015 (ip), vehicle: carboxymethylcellulose (CMC)) 95 % of control; (dose: 360.0 mg/kg/injection, schedule: Q01DX015 (ip), vehicle: carboxymethylcellulose (CMC)) 98 % of control. Besides, the T/C (dose: 400.0 mg/kg/injection, schedule: Q01DX001 (ip), vehicle: carboxymethylcellulose (CMC)) was 104 % of control; the T/C (dose: 400.0 mg/kg/injection, schedule: Q01DX009 (ip), vehicle: saline sonified) is 99 % of control; the T/C under setting [6] is 100 % of control.
In the case of `CCCCN=C(N)c1ccc(NC(=O)c2ccc(C(=O)Nc3ccc(C(N)=NCCCC)cc3)cc2)cc1`, the T/C was 110 % of control (dose: 6.0 mg/kg/injection, schedule: Q01DX001 (ip), vehicle: methylcellulose (MC)); 212 % of control (dose: 6.0 mg/kg/injection, schedule: Q01DX Z (ip), vehicle: methylcellulose (MC)); 100 % of control (dose: 12.0 mg/kg/injection, schedule: Q01DX Z (ip), vehicle: methylcellulose (MC)); 119 % of control (dose: 15.0 mg/kg/injection, schedule: Q01DX001 (ip), vehicle: methylcellulose (MC)).
As for `c1ccc2c(c1)Cc1cc(NC3=NCCO3)ccc1-2`, the T/C reads like this: (dose: 50.0 mg/kg/injection, schedule: Q04DX002 (ip), vehicle: saline with Tween-80) 93 % of control; (dose: 100.0 mg/kg/injection, schedule: Q04DX002 (ip), vehicle: saline with Tween-80) 100 % of control; (dose: 100.0 mg/kg/injection, schedule: Q04DX003 (ip), vehicle: saline with Tween-80) 101 % of control; (dose: 200.0 mg/kg/injection, schedule: Q04DX002 (ip), vehicle: saline with Tween-80) 104 % of control; (dose: 200.0 mg/kg/injection, schedule: Q04DX003 (ip), vehicle: saline with Tween-80) 89 % of control; (dose: 400.0 mg/kg/injection, schedule: Q04DX002 (ip), vehicle: saline with Tween-80) 93 % of control. Further, for the setting “dose: 400.0 mg/kg/injection, schedule: Q04DX003 (ip), vehicle: saline with Tween-80”, the T/C is 87 % of control.
Consider `CC1CCCN(N=Nc2ccc(Br)cc2-c2nc(N)c3cc(Br)ccc3n2)C1` (stereo not given), for which the T/C was 97 % of control (dose: 25.0 mg/kg/injection, schedule: Q01DX001 (ip), vehicle: Klucel (hydroxypropylcellulose) (HPC)); 105 % of control (dose: 50.0 mg/kg/injection, schedule: Q01DX001 (ip), vehicle: Klucel (hydroxypropylcellulose) (HPC)); 102 % of control under setting [7].
Take `Clc1cc2nsnc2c2ccccc12`: the T/C (dose: 200.0 mg/kg/injection, schedule: Q04DX002 (ip), vehicle: gum acacia) was 95 % of control.
`CCCCC/C=C\C/C=C/CCCCCCCC1=NC(C)(CO)CO1` (stereo not given): the T/C reads like this: under setting [8], 92 % of control; under setting [9], 98 % of control; (dose: 400.0 mg/kg/injection, schedule: Q01DX001 (ip), vehicle: saline) 98 % of control.
Turning to `CC1c2ccccc2C(C)c2c1cc(F)c1ccccc21` (stereo not given), the T/C (dose: 100.0 mg/kg/injection, schedule: Q04DX002 (ip), vehicle: other) was 115 % of control; the T/C (dose: 200.0 mg/kg/injection, schedule: Q04DX002 (ip), vehicle: other) was 93 % of control; the T/C (dose: 400.0 mg/kg/injection, schedule: Q04DX002 (ip), vehicle: other) was 101 % of control.
In the case of `Cc1cccc(NC(=O)Oc2ccccc2C(N)=O)c1`, the T/C was 94 % of control under setting [7]; 94 % of control under setting [1]; 94 % of control and 100 % of control (dose: 100.0 mg/kg/injection, schedule: Q04DX002 (ip), vehicle: Klucel (hydroxypropylcellulose) (HPC)); 95 % of control under setting [4]; 95 % of control (dose: 200.0 mg/kg/injection, schedule: Q01DX001 (ip), vehicle: Klucel (hydroxypropylcellulose) (HPC)); 96 % of control under setting [2]. Besides, the T/C reads like this: (dose: 200.0 mg/kg/injection, schedule: Q04DX002 (ip), vehicle: Klucel (hydroxypropylcellulose) (HPC)) 98 % of control; under setting [5], 95 % of control; (dose: 400.0 mg/kg/injection, schedule: Q01DX001 (ip), vehicle: Klucel (hydroxypropylcellulose) (HPC)) 106 % of control; under setting [3], 91 % of control and 92 % of control; (dose: 400.0 mg/kg/injection, schedule: Q04DX002 (ip), vehicle: Klucel (hydroxypropylcellulose) (HPC)) 94 % of control and 96 % of control; under setting [6], 93 % of control.
Take `CCOC(=O)/C=C/c1cccc([N+](=O)[O-])c1`: the T/C is 98 % of control under setting [4], 91 % of control under setting [5] and 101 % of control under setting [6].
Regarding `CCCCNC(=O)NNC(=O)CCCC(=O)NNC(=O)NCCCC`, the T/C reads like this: (dose: 50.0 mg/kg/injection, schedule: Q01DX001 (ip), vehicle: saline) 100 % of control; under setting [8], 93 % of control; under setting [9], 100 % of control.
